Data as given in ChEMBL document CHEMBL4196018, “New antitumor anthra[2,3-b]furan-3-carboxamides: Synthesis and structure-activity relationship” (Eur J Med Chem, 2018).
pIC50: −log10 of the molar value. The source made the active and inactive calls. The calls are words filed in the database; no cut-off is given here.

Columns and labels:
[1] = Resistance index, ratio of IC50 for human K562/4 cells to IC50 for human K562 cells; assay type: functional
HeLa = test: Antiproliferative activity against human HeLa cells after 72 hrs by MTT assay; assay type: functional, cell-based
L1210 = test: Antiproliferative activity against mouse L1210 cells after 48 hrs by MTT assay; assay type: functional, cell-based; conditions: L1210, 48 h
K562 [2] = test: Antiproliferative activity against human K562 cells after 72 hrs by MTT assay; assay type: functional, cell-based; conditions: K562, 72 h
HCT-116 [3] = test: Antiproliferative activity against p53 knockout human HCT116 cells after 72 hrs by MTT assay; assay type: functional, cell-based; conditions: HCT-116, 72 h
[4] = Resistance index, ratio of IC50 for p53 knockout human HCT116 cells to IC50 for human HCT116 cells; assay type: functional
[5] = Antiproliferative activity against human K562/4 cells after 72 hrs by MTT assay; assay type: functional, cell-based; conditions: K562/4, 72 h
HCT-116 [6] = test: Antiproliferative activity against human HCT116 cells after 72 hrs by MTT assay; assay type: functional, cell-based; conditions: HCT-116, 72 h
CCRF-CEM = test: Antiproliferative activity against human CEM cells after 72 hrs by MTT assay; assay type: functional, cell-based
[7] = Drug uptake in human K562 cells at 2 uM after 1 to 24 hrs by flow cytometry; assay type: ADME, cell-based; conditions: k562, 2 µM
[8] = Substrate activity at P-gp in human K562/4 cells assessed as test compound accumulation at 2 uM after 1 to 24 hrs in presence of P-gp inhibitor tariquidar by flow cytometry; assay type: ADME, cell-based
[9] = Substrate activity at P-gp in human K562/4 cells assessed as test compound accumulation at 2 uM after 1 to 24 hrs by flow cytometry; assay type: ADME, cell-based
MKN-45 [10] = test: Induction of ROS generation in human MKN45 cells at 0.1 to 1 uM after 30 mins by H2DCFDA staining based flow cytometry; assay type: functional, cell-based
TMK-1 [11] = test: Induction of apoptosis in human TMK1 cells after 24 hrs by Annexin V-FITC staining based flow cytometry; assay type: functional, cell-based
MKN-45 [12] = test: Induction of apoptosis in human MKN45 cells at 1 uM after 24 hrs by Annexin V-FITC staining based flow cytometry relative to control; assay type: functional
TMK-1 [13] = test: Induction of apoptosis in human TMK1 cells at 1 uM after 24 hrs by Annexin V-FITC staining based flow cytometry relative to control; assay type: functional
Lymphocyte = test: Cytotoxicity against human lymphocytes assessed as reduction in cell viability at 25 uM after 72 hrs by MTT assay; assay type: cell-based
MKN-45 [14] = test: Induction of apoptosis in human MKN45 cells after 24 hrs by Annexin V-FITC staining based flow cytometry; assay type: functional, cell-based
TMK-1 [15] = test: Induction of ROS generation in human TMK1 cells at 0.1 to 1 uM after 30 mins by H2DCFDA staining based flow cytometry; assay type: functional, cell-based
[16] = biological target: T1, DNA topoisomerase 1 (Homo sapiens) (UniProt P11387); test: Inhibition of human topoisomerase-1 using supercoiled pBR322 DNA as substrate after 30 mins by agarose gel electrophoresis method
T1 sequence (whole entry): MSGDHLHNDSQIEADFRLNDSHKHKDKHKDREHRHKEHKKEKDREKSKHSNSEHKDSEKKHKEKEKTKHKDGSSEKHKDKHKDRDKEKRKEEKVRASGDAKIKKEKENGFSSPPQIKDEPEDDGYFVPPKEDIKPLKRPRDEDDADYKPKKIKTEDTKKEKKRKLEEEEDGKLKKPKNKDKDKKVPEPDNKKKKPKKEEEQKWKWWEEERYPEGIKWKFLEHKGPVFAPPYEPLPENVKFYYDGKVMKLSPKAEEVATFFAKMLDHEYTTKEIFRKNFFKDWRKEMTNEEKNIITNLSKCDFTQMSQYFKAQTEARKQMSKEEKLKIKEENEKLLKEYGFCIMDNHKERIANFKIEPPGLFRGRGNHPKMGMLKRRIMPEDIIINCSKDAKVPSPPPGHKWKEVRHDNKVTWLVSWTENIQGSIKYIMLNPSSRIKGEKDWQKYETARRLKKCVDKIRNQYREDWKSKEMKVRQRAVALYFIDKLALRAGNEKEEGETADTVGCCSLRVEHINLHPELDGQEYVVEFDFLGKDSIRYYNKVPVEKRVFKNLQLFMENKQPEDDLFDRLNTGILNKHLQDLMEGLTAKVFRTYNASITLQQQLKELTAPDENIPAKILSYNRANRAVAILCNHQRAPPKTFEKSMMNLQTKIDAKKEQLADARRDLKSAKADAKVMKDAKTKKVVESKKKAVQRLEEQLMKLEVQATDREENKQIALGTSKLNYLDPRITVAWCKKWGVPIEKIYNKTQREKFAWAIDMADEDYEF

[17] = Substrate activity at P-gp in human K562/4 cells assessed as test compound accumulation at 1 uM after 1 to 24 hrs by flow cytometry; assay type: ADME, cell-based
Homo sapiens = organism: Homo sapiens; test: Cell cycle arrest in human K562/4 cells at 1 uM up to 48 hrs by propidium iodide staining based flow cytometry; assay type: functional
K562 [18] = test: Cell cycle arrest in human K562 cells at 1 uM up to 48 hrs by propidium iodide staining based flow cytometry; assay type: functional
[19] = biological target: T1, DNA topoisomerase 1 (Homo sapiens); test: Inhibition of human topoisomerase-1 at 1 to 30 uM using supercoiled pBR322 DNA as substrate after 30 mins by agarose gel electrophoresis method

Compound	Ratio IC50 [1]	pIC50 (HeLa)	pIC50 (L1210)	pIC50 (K562 [2])	pIC50 (HCT-116 [3])	Ratio IC50 [4]	pIC50 [5]	pIC50 (HCT-116 [6])	pIC50 (CCRF-CEM)	Drug uptake [7]	Activity [9]	further results
O=C1c2ccccc2C(=O)c2c1c(O)c1occ(C(=O)NC3CCNCC3)c1c2O	2.3	5.96	6.05	5.96	5.40	1	5.60	5.38	6.10	–	–	–
Cc1oc2c(O)c3c(c(O)c2c1CN1CC[C@@H](N)C1)C(=O)c1ccccc1C3=O	1.6	5.55	5.37	5.92	5.66	1	5.72	5.66	5.37	–	–	–
O=C1c2ccccc2C(=O)c2c1c(O)c1occ(C(=O)NC3CCNC3)c1c2O (racemic)	5	5.70	6.00	6.05	6.00	1.3	5.35	6.10	6.00	–	–	–
NC1CCN(C(=O)c2coc3c(O)c4c(c(O)c23)C(=O)c2ccccc2C4=O)CC1	4.2	5.38	5.62	5.64	5.00	1.7	5.02	5.22	5.40	–	–	–
COc1cccc2c1C(=O)c1c(O)c3c(c(O)c1C2=O)C[C@@](O)(C(=O)CO)C[C@@H]3O[C@H]1C[C@H](N)[C@H](O)[C@H](C)O1 [DOXORUBICIN]	–	–	–	–	–	–	5.01	–	–	Active	Active	Activity [8]: Not Active
CN1CCN(NC(=O)c2coc3c(O)c4c(c(O)c23)C(=O)c2ccccc2C4=O)CC1	1.4	5.66	5.70	5.96	6.10	1	5.82	6.10	5.49	–	–	–
N[C@H]1CCN(C(=O)c2coc3c(O)c4c(c(O)c23)C(=O)c2ccccc2C4=O)C1	1.3	6.00	6.15	5.96	5.47	1.2	5.82	5.55	5.89	Active	Not Active	Activity (MKN-45 [10]): Active; Activity (TMK-1 [11]): Dose-dependent effect; Activity (MKN-45 [12]): 60 - 90%; Activity (TMK-1 [13]): 60 - 90%; Activity (Lymphocyte): Non-Toxic; Activity (MKN-45 [14]): Dose-dependent effect; Activity (TMK-1 [15]): Active; inhibition [16]: Dose-dependent effect
COc1cc2c(cc1OC)CN(CCc1ccc(NC(=O)c3cc(OC)c(OC)cc3NC(=O)c3cnc4ccccc4c3)cc1)CC2	–	–	–	–	–	–	–	–	–	–	–	Activity [17]: Not Active
N[C@H]1CCN(C(=O)c2c(C(F)(F)F)oc3c(O)c4c(c(O)c23)C(=O)c2ccccc2C4=O)C1	0.6	5.36	5.77	5.44	5.34	0.9	5.66	5.28	5.40	Active	Not Active	Activity (Homo sapiens): Active; Activity (K562 [18]): Active; inhibition [19]: inactive
